Laboratory results as given in patent publication US9617289B2, “RSV antiviral compounds” (JANSSEN R&D IRELAND, priority 2012, dated 2017).

Each compound was assayed on rgRSV224 virus (assay: Antiviral activity: inhibition of rgRSV224 (GFP-expressing RSV) replication in HeLa cells). Settings: human respiratory syncytial virus, HeLa, 72 h, read-out: pEC50, rgRSV224 (MOI=0.02) in HeLa cells, GFP expression three days post-virus exposure (converted).
Assay type: cell-based, respiratory syncytial virus
Procedure: Black 96-well clear-bottom microtiter plates (Corning, Amsterdam, The Netherlands) were filled in duplicate using a customized robot system with serial 4-fold dilutions of compound in a final volume of 50 μl culture medium [RPMI medium without phenol red, 10% FBS, 0.04% gentamycin (50 mg/ml) and 0.5% DMSO]. Then, 100 μl of a HeLa cell suspension (5×10^4 cells/ml) in culture medium was added to each well followed by the addition of 50 μl rgRSV224 (MOI=0.02) virus in culture medium using a multidrop dispenser (Thermo Scientific, Erembodegem, Belgium). rgRSV224 virus is an engineered virus that includes an additional GFP gene (Hallak et al, 2000) and was in-licensed from the NIH (Bethesda, Md., USA). Medium, virus- and mock-infected controls were included in each test. Cells were incubated at 37° C. in a 5% CO2 atmosphere. Three days post-virus exposure, viral replication was quantified by measuring GFP expression in the cells by a MSM laser microscope (Tibotec, Beerse, Belgium). The EC50 was defined as the 50% inhibitory concentration for GFP expression. In parallel, compounds were incubated for three days in a set of white 96-well microtitier plates (Corning) and the cytotoxicity of compounds in HeLa cells was determined by measuring the ATP content of the cells using the ATPlite kit (PerkinElmer, Zaventem, Belgium) according to the manufacturer's instructions. The CC50 was defined as the 50% concentration for cytotoxicity. SI is calculated as CC50/EC50.

Point of comparison: `O=C(OC1CCCC1)N1CCC2(CC1)C(=O)N(Cc1nc3cc(Cl)ccc3n1CCCC(F)(F)F)c1ccccc12` [Compound 47, Cyclopentyl 1-((5-chloro-1-(4,4,4-trifluorobutyl)-1H-benzo[d]imidazol-2-yl)methyl)-2-oxospiro[indoline-3,4′-piperidine]-1′-carboxylate], EC50 1580 pM. Against it:
- CC(C)(O)CN1CCC2(CC1)C(=O)N(Cc1nc3cc(Cl)ccc3n1CCCS(C)(=O)=O)c1ccc(Cl)cc12 [Compound 25, 5-chloro-1-((5-chloro-1-(3-(methylsulfonyl)propyl)-1H-benzo[d]imidazol-2-yl)methyl)-1-(2-hydroxy-2-methylpropyl)spiro[indoline-3,4′-piperidin]-2-one] — 20-fold higher, 31600 pM
- CS(=O)(=O)CCCn1c(CN2C(=O)C3(CCNCC3)c3c(Cl)cccc32)nc2cc(Cl)ccc21 [Compound 26, 4-chloro-1-({5-chloro-1-[3-(methylsulfonyl)propyl]-1H-benzimidazol-2-yl}methyl)spiro[indole-3,4′-piperidin]-2(1H)-one] — 200-fold higher, 316000 pM
- CS(=O)(=O)CCCn1c(CN2C(=O)C3(CN(S(=O)(=O)c4ccc(F)cc4)C3)c3ccccc32)nc2cc(Cl)ccc21 [Compound 33, 1′-({5-chloro-1-[3-(methylsulfonyl)propyl]-1H-benzimidazol-2-yl}methyl)-1-[(4-fluorophenyl)-sulfonyl]spiro[azetidine-3,3′-indol]-2′(1′H)-one] — 10-fold lower, 158 pM
- CS(=O)(=O)CCCn1c(CN2C(=O)C3(CCCC3)c3ccncc32)nc2cc(Cl)ccc21 [Compound 37, 1′-((5-chloro-1-(3-(methylsulfonyl)propyl)-1H-benzo[d]-imidazol-2-yl)methyl)spiro[cyclopentane-1,3′-pyrrolo[2,3-c]pyridin]-2′(1′H)-one] — 16-fold lower, 100 pM
- CS(=O)(=O)CCCn1c(CN2C(=O)C3(CCOCC3)c3ccncc32)nc2cc(Cl)ccc21 [Compound 38, 1′-((5-chloro-1-(3-(methylsulfonyl)propyl)-1H-benzo[d]-imidazol-2-yl)methyl)-2,3,5,6-tetrahydrospiro[pyran-4,3′-pyrrolo[2,3-c]pyridin]-2′(1′H)-one] — 10-fold lower, 158 pM
- CC(C)(C)OC(=O)N1CCC2(CC1)C(=O)N(Cc1nc3cc(Cl)ccc3n1CCCS(C)(=O)=O)c1ccccc12 [Compound 39, tert-butyl 1-((5-chloro-1-(3-(methylsulfonyl)propyl)-1H-benzo[d]imidazol-2-yl)methyl)-2-oxospiro[indoline-3,4′-piperidine]-1′-carboxylate] — 2.5-fold lower, 631 pM
- CS(=O)(=O)CCCn1c(CN2C(=O)C3(CCOCC3)c3ccccc32)nc2cc(Cl)ccc21 [Compound 40, 1-((5-chloro-1-(3-(methylsulfonyl)propyl)-1H-benzo[d]-imidazol-2-yl)methyl)-2′,3′,5′,6′-tetrahydrospiro[indoline-3,4′-pyran]-2-one] — 1.6-fold higher, 2510 pM
- CS(=O)(=O)CCCn1c(CN2C(=O)C3(CCOCC3)c3cnccc32)nc2cc(Cl)ccc21 [Compound 41, 1-((5-chloro-1-(3-(methylsulfonyl)propyl)-1H-benzo[d]-imidazol-2-yl)methyl)-2,3,5,6-tetrahydrospiro[pyran-4,3′-pyrrolo[3,2-c]pyridin]-2′(1′H)-one] — 29-fold higher, 45700 pM
- CC(=O)N1CCC2(CC1)C(=O)N(Cc1nc3cc(Cl)ccc3n1CCCS(C)(=O)=O)c1cnccc12 [Compound 42, 1-acetyl-1′-((5-chloro-1-(3-(methylsulfonyl)propyl)-1H-benzo[d]imidazol-2-yl)methyl)spiro[piperidine-4,3′-pyrrolo-[2,3-c]pyridin]-2′(1′H)-one] — lower, < 158 pM
- O=C(Oc1ccc(F)cc1)N1CC2(C1)C(=O)N(Cc1nc3cc(Cl)ccc3n1CCCC(F)(F)F)c1ccccc12 [Compound 43, 4-fluorophenyl 1′-((5-chloro-1-(4,4,4-trifluorobutyl)-1H-benzo[d]imidazol-2-yl)methyl)-2′-oxospiro[azetidine-3,3′-indoline]-1-carboxytale] — 6.3-fold lower, 251 pM
- CC(C)(C)OC(=O)N1CC2(C1)C(=O)N(Cc1nc3cc(Cl)ccc3n1CCCC(F)(F)F)c1ccccc12 [Compound 44, tert-butyl 1′-((5-chloro-1-(4,4,4-trifluorobutyl)-1H-benzo[d]imidazol-2-yl)methyl)-2′-oxospiro[azetidine-3,3′-indoline]-1-carboxylate] — 6.3-fold lower, 251 pM
- CC(C)COC(=O)N1CC2(C1)C(=O)N(Cc1nc3cc(Cl)ccc3n1CCCC(F)(F)F)c1ccccc12 [Compound 45, isobutyl 1′-((5-chloro-1-(4,4,4-trifluorobutyl)-1H-benzo[d]-imidazol-2-yl)methyl)-2′-oxospiro[azetidine-3,3′-indoline]-1-carboxylate] — 4-fold lower, 398 pM
- O=C1N(Cc2nc3cc(Cl)ccc3n2CCCC(F)(F)F)c2ccccc2C12CNC2 [Compound 46, 1′-((5-chloro-1-(4,4,4-trifluorobutyl)-1H-benzo[d]imidazol-2-yl)methyl)spiro[azetidine-3,3-indolin]-2′-one] — 2.5-fold lower, 631 pM
- CC(C)(C)OC(=O)N1CCC2(CC1)C(=O)N(Cc1nc3cc(Cl)ccc3n1CCCC(F)(F)F)c1ccccc12 [Compound 48] — 1.6-fold higher, 2510 pM
- O=C1N(Cc2nc3cc(Cl)ccc3n2CCCC(F)(F)F)c2ccccc2C12CCNCC2 [Compound 49, 1-((5-chloro-1-(4,4,4-trifluorobutyl)-1H-benzo[d]imidazol-2-yl)methyl) spiro[indoline-3,4′-piperidin]-2-one] — 3.2-fold higher, 5010 pM
- O=C(OCc1ccccc1)N1CCC2(CC1)C(=O)N(Cc1nc3cc(Cl)ccc3n1CCCC(F)(F)F)c1ccccc12 [Compound 50, benzyl 1-((5-chloro-1-(4,4,4-trifluorobutyl)-1H-benzo[d]-imidazol-2-yl)methyl)-2-oxospiro[indoline-3,4′-piperidine]-1′-carboxylate] — 6.3-fold higher, 10000 pM
- O=C1N(Cc2nc3cc(Cl)ccc3n2CCCC(F)(F)F)c2ccccc2C12CCN(Cc1ccccc1)CC2 [Compound 51, 1′-benzyl-1-((5-chloro-1-(4,4,4-trifluorobutyl)-1H-benzo[d]-imidazol-2-yl)methyl)spiro[indoline-3,4′-piperidin]-2-one] — 40-fold higher, 63100 pM
- O=C1N(Cc2nc3cc(Cl)ccc3n2CCCC(F)(F)F)c2ccccc2C12CCOCC2 [Compound 52, 1-((5-chloro-1-(4,4,4-trifluorobutyl)-1H-benzo[d]imidazol-2-yl)methyl)-2′,3′,5′,6′-tetrahydrospiro[indoline-3,4′-pyran]-2-one] — 1.6-fold higher, 2510 pM
- CC(C)(C)OC(=O)N1CCC2(CC1)C(=O)N(Cc1nc3cc(Cl)ccc3n1CCCC#N)c1cnccc12 [Compound 53, tert-butyl 1′-((5-chloro-1-(3-cyanopropyl)-1H-benzo[d]-imidazol-2-yl)methyl)-2′-oxo-1′,2′-dihydrospiro[piperidine-4,3′-pyrrolo[2,3-c]pyridine]-1-carboxylate] — lower, < 158 pM
- CS(=O)(=O)CCCn1c(CN2C(=O)C3(CCCC3)c3ccncc32)cc2cc(Cl)ccc21 [Compound 54, 1′-({5-chloro-1-[3-(methylsulfonyl)propyl]-1H-indol-2-yl}methyl)spiro [cyclopentane-1,3′-pyrrolo[2,3-c]pyridin]-2′(1′H)-one] — the same, 1580 pM
- CS(=O)(=O)CCCn1c(CN2C(=O)C3(CCOCC3)c3cnccc32)cc2cc(Cl)ccc21 [Compound 57] — 53-fold higher, 83200 pM
- CC(C)(C)OC(=O)N1CC2(C1)C(=O)N(Cc1cc3cc(Cl)ccc3n1CCCC#N)c1ccccc12 [Compound 58, tert-butyl 1′-{[5-chloro-1-(3-cyanopropyl)-1H-indol-2-yl]-methyl}-2′-oxo-1′,2′-dihydro-1H-spiro[azetidine-3,3′-indole]-1-carboxylate] — lower, < 200 pM
- N#CCCCn1c(CN2C(=O)C3(CNC3)c3ccccc32)cc2cc(Cl)ccc21 [Compound 59, 4-{5-chloro-2-[(2′-oxospiro[azetidine-3,3′-indol]-1′(2′H )-yl)-methyl]-1H-indol-1-yl}butanenitrile] — 3.2-fold higher, 5010 pM
- COC(=O)N1CC2(C1)C(=O)N(Cc1cc3cc(Cl)ccc3n1CCCC#N)c1ccccc12 [Compound 60, 1′-{[5-chloro-1-(3-cyanopropyl)-1H-indol-2-yl]methyl}-2′-oxo-1′,2′-dihydro-1H-spiro[azetidine-3,3′-indole]-1-carboxylate] — 6.3-fold lower, 251 pM
- N#CCCCn1c(CN2C(=O)C3(CN(S(=O)(=O)C4CC4)C3)c3ccccc32)cc2cc(Cl)ccc21 [Compound 61, 4-(5-chloro-2-{[1-(cyclopropylsulfonyl)-2′-oxospiro-[azetidine-3,3′-indol]-1′(2′H)-yl]methyl}-1H-indol-1-yl)-butanenitrile] — 4-fold lower, 398 pM
- CC(C)(C)OC(=O)N1CCC2(CC1)C(=O)N(Cc1cc3cc(Cl)ccc3n1CCCC#N)c1cnccc12 [Compound 63, tert-butyl 1′-((5-chloro-1-(3-cyanopropyl)-1H-indol-2-yl)-methyl)-2′-oxo-1′,2′-dihydrospiro[piperidine-4,3′-pyrrolo-[2,3-c]pyridine]-1-carboxylate] — 10-fold lower, 158 pM
- CC(=O)N1CCC2(CC1)C(=O)N(Cc1cc3cc(Cl)ccc3n1CCCC#N)c1cnccc12 [Compound 64, 4-(2-((1-acetyl-2′-oxospiro[piperidine-4,3′-pyrrolo[2,3-c]-pyridin]-1′(2′H)-yl)methyl)-5-chloro-1H-indol-1-yl)butane-nitrile] — 6.3-fold lower, 251 pM
